Source: patent US5334603A, “Composition and use of 3-phenyl-5-thiocyano-methylthio-1,3,4-thiadiazole-2(3h)thione” (The Dow Chemical Company, priority 1993, dated 1994)
≈ marks a conversion by molar mass, not a printed value.

What was measured:
Type in all cases: cell-based
Bacillus subtilis (Bs) = assay: Minimum inhibitory concentration (MIC), nutrient agar; conditions: 48 hours
Experimental: (§1) The minimum inhibitory concentration (MIC) for the compound is determined for 9 bacteria, using nutrient agar; and 7 yeast and fungi, using malt yeast agar. A one percent solution of the test compound is prepared in a mixture of acetone and water. Nutrient agar is prepared at pH 6.8, representing a neutral medium, and at pH 8.2, representing an alkaline medium. The nutrient agars are prepared by adding 23 g of nutrient agar to one-liter of deionized water. In addition, the alkaline medium is prepared by adjusting a 0.04M solution of N-[tris-(hydroxymethyl)methyl]-glycine buffered deionized water with concentrated sodium hydroxide to a pH of […]. Malt yeast agar is prepared by adding 3 g yeast extract and 45 g malt agar per liter of deionized water. The specific agar is dispensed in 30 ml aliquots into 25×200 mm test tubes, capped and autoclaved for 15 minutes at 115° C. The test tubes containing the agar are cooled in a water bath until the temperature of the agar is 48 ° C. Then, an appropriate amount of the one percent solution of the test compound is added (except in the controls where no compound is added) to the respective test tubes so that the final concentrations are 500, 250, 100, 50, 25, 10, 5, 2.5, 1.0 and zero parts per million of the test compound in the agar, thus having a known concentration of test compound dispersed therein. The contents of the test tubes are then transferred to respective petri plates. After drying for 24 hours, the petri plates containing nutrient agar are inoculated with bacteria and those containing malt yeast agar are inoculated with yeast and fungi.
(§2) The inoculation with bacteria is accomplished by using the following procedure. Twenty-four hour-cultures of each of the bacteria are prepared by incubating the respective bacteria in tubes containing nutrient broth for 24 hours at 30° C. in a shaker. Dilutions of each of the 24 hour-cultures are made so that nine separate suspensions (one for each of the nine test bacteria) are made, each containing 10^8 colony forming units (CFU) per ml of suspension of a particular bacteria. Aliquots of 0.3 ml of each of the bacterial suspensions are used to fill the individual wells of Steer's Replicator. For each microbial suspension, 0.3 ml was used to fill three wells (i.e., three wells of 0.3 ml each) so that for the nine different bacteria, 27 wells are filled. The Steer's Replicator is then used to inoculate both the neutral and alkaline pH nutrient agar petri plates.
(§3) The inoculated petri plates are incubated at 30° C. for 48 hours and then read to determine if the test compound which is incorporated into the agar prevented growth of the respective bacteria.

[1] = test system: Staphylococcus aureus (Sa); assay: as above; conditions: 48 hours
Experimental: as §1, §2, §3

Escherichia coli (Ec) = assay: as above; conditions: 48 hours
Experimental: as §1, §2, §3

[2] = test system: Pseudomonas aeruginosa (Pa); assay: as above; conditions: 48 hours
Experimental: as §1, §2, §3

[3] = test system: Pseudomonas aeruginosa (PRD-10); assay: as above; conditions: 48 hours
Experimental: as §1, §2, §3

[4] = test system: Enterobacter aerogenes (Ea); assay: as above; conditions: Klebsiella aerogenes, ATCC13048, ATCC 13048, 30° C., 48 hours
Experimental: as §1, §2, §3

Proteus vulgaris (Pv) = assay: as above; conditions: 48 hours
Experimental: as §1, §2, §3

[5] = test system: Salmonella choleraesuis (Sc); assay: as above; conditions: Salmonella enterica, ATCC 10708 / CHOLERAESUIS, 48 hours
Experimental: as §1, §2, §3

[6] = test system: Klebsiella pneumoniae (Kp); assay: as above; conditions: 48 hours
Experimental: as §1, §2, §3

Candida Albicans (Ca) = assay: Minimum inhibitory concentration (MIC), malt yeast agar; conditions: pH 5.5; ATCC 10231; 30° C.; 48 hours for yeast, 72 hours for fungi
Experimental: as §1
(§4) The inoculation with the yeast and fungi is accomplished as follows. Cultures of yeast and fungi are incubated for seven days on malt yeast agar at 30° C. These cultures are used to prepare suspensions by the following procedure. A suspension of each organism is prepared by adding 10 ml of sterile saline and 10 microliters of octylphenoxy polyethoxy ethanol to the agar slant of yeast or fungi. The sterile saline/octylphenoxy polyethoxy ethanol solution is then agitated with a sterile swab to suspend the microorganism grown on the slant. Each resulting suspension is diluted into sterile saline (1 part suspension: 9 parts sterile saline). Aliquots of these dilutions are placed in individual wells of Steer's Replicator and petri plates inoculated as previously described. The petri plates are incubated at 30° C. and read after 48 hours for yeast and 72 hours for fungi.

Trichoderma viride (Tv) = assay: as above; conditions: pH 5.5; ATCC 8678; 30° C.; 48 hours for yeast, 72 hours for fungi
Experimental: as §1, §4

Aspergillus niger (An) = assay: as above; conditions: pH 5.5; ATCC 16404; 30° C.; 48 hours for yeast, 72 hours for fungi
Experimental: as §1, §4

[7] = test system: Saccharomyces cerevisiae (Sc); assay: as above; conditions: ATCC4105, pH 5.5, ATCC 4105, 30° C., 48 hours for yeast, 72 hours for fungi
Experimental: as §1, §4

[8] = test system: Aureobasidium pullulan (Ap); assay: as above; conditions: pH 5.5; ATCC 16622; 30° C.; 48 hours for yeast, 72 hours for fungi
Experimental: as §1, §4

[9] = test system: Penicillium chrysogenum (Pc); assay: as above; conditions: pH 5.5; ATCC 9480; 30° C.; 48 hours for yeast, 72 hours for fungi
Experimental: as §1, §4

Fusarium oxysporum (Fo) = assay: as above; conditions: pH 5.5; ATCC 48112; 30° C.; 48 hours for yeast, 72 hours for fungi
Experimental: as §1, §4

SMILES: N#CSCSc1nn(-c2ccccc2)c(=S)s1 [INVENTION, 3-phenyl-5-thiocyanomethylthio-1,3,4-thiadiazole-2(3H)thione]
- MIC (Bacillus subtilis (Bs); ATCC8473, pH 6.8, ATCC 8473, 30° C.): 100 µg/mL (≈ 336 µM)
- MIC (Bacillus subtilis (Bs); ATCC8473, pH 8.2, ATCC 8473, 30° C.): < 10 µg/mL
- MIC ([1]; ATCC6538, pH 6.8, ATCC 6538, 30° C.): 100 µg/mL (≈ 336 µM)
- MIC ([1]; ATCC6538, pH 8.2, ATCC 6538, 30° C.): 250 µg/mL (≈ 840 µM)
- MIC (Escherichia coli (Ec); ATCC11229, pH 6.8, ATCC 11229, 30° C.): 100 µg/mL (≈ 336 µM)
- MIC (Escherichia coli (Ec); ATCC11229, pH 8.2, ATCC 11229, 30° C.): 500 µg/mL (≈ 1680 µM)
- MIC ([2]; ATCC10145, pH 6.8, ATCC 10145, 30° C.): 50 µg/mL (≈ 168 µM)
- MIC ([2]; ATCC10145, pH 8.2, ATCC 10145, 30° C.): 50 µg/mL (≈ 168 µM)
- MIC ([3]; ATCC15442, pH 6.8, ATCC 15442, 30° C.): 50 µg/mL (≈ 168 µM)
- MIC ([3]; ATCC15442, pH 8.2, ATCC 15442, 30° C.): 100 µg/mL (≈ 336 µM)
- MIC ([4]; pH 6.8): 100 µg/mL (≈ 336 µM)
- MIC ([4]; pH 8.2): > 500 µg/mL
- MIC (Proteus vulgaris (Pv); ATCC881, pH 6.8, ATCC 881, 30° C.): 100 µg/mL (≈ 336 µM)
- MIC (Proteus vulgaris (Pv); ATCC881, pH 8.2, ATCC 881, 30° C.): 250 µg/mL (≈ 840 µM)
- MIC ([5]; pH 6.8, 30° C.): 100 µg/mL (≈ 336 µM)
- MIC ([5]; pH 8.2, 30° C.): 500 µg/mL (≈ 1680 µM)
- MIC ([6]; ATCC8308, pH 6.8, ATCC 8308, 30° C.): 100 µg/mL (≈ 336 µM)
- MIC ([6]; ATCC8308, pH 8.2, ATCC 8308, 30° C.): 250 µg/mL (≈ 840 µM)
- MIC (Candida Albicans (Ca)): 25 µg/mL (≈ 84 µM)
- MIC (Trichoderma viride (Tv)): 25 µg/mL (≈ 84 µM)
- MIC (Aspergillus niger (An)): 5 µg/mL (≈ 16.8 µM)
- MIC [7]: 5 µg/mL (≈ 16.8 µM)
- MIC [8]: 2.5 µg/mL (≈ 8.4 µM)
- MIC [9]: 2.5 µg/mL (≈ 8.4 µM)
- MIC (Fusarium oxysporum (Fo)): 10 µg/mL (≈ 33.6 µM)
